{
  "source": "paper PMC6334511",
  "about": "“Biochemical characterization of the minimal domains of an iterative eukaryotic polyketide synthase” (The Febs Journal, 2018)",
  "tested_on": "ApPKS KS-AT didomain",
  "assay": "alpha-ketoglutarate dehydrogenase coupled NADH fluorescence",
  "assay_type": "biochemical, Anas platyrhynchos",
  "conditions": "transacylation to ACP1 (AT site), corrected for ACP1 self-acylation; 50 mM sodium phosphate pH 7.6, 10% glycerol, 1 mM TCEP, 1 mM EDTA; read-out: Km (apparent)",
  "data": [
    {"compound": "CC(=O)SCCNC(=O)CCNC(=O)[C@H](O)C(C)(C)COP(=O)(O)OP(=O)(O)OC[C@H]1O[C@@H](n2cnc3c(N)ncnc32)[C@H](O)[C@@H]1OP(=O)(O)O", "note": "[acetyl-CoA]", "values": [
      {"measurement": "Km", "result": "8.97 ± 1.53", "unit": "µM"}
    ]},
    {"compound": "CC(C)(COP(=O)(O)OP(=O)(O)OC[C@H]1O[C@@H](n2cnc3c(N)ncnc32)[C@H](O)[C@@H]1OP(=O)(O)O)[C@@H](O)C(=O)NCCC(=O)NCCSC(=O)CC(=O)O", "note": "[malonyl-CoA]", "values": [
      {"measurement": "Km", "result": "7.4 ± 0.97", "unit": "µM"}
    ]},
    {"compound": "CC(C(=O)O)C(=O)SCCNC(=O)CCNC(=O)[C@H](O)C(C)(C)COP(=O)(O)OP(=O)(O)OC[C@H]1O[C@@H](n2cnc3c(N)ncnc32)[C@H](O)[C@@H]1OP(=O)(O)O", "note": "(stereo partly shown) [methylmalonyl-CoA]", "values": [
      {"measurement": "Km", "result": "245 ± 37.7", "unit": "µM"}
    ]},
    {"compound": "CCC(=O)SCCNC(=O)CCNC(=O)[C@H](O)C(C)(C)COP(=O)(O)OP(=O)(O)OC[C@H]1O[C@@H](n2cnc3c(N)ncnc32)[C@H](O)[C@@H]1OP(=O)(O)O", "note": "[propionyl-CoA]", "values": [
      {"measurement": "Km", "result": "12.2 ± 3.03", "unit": "µM"}
    ]}
  ]
}
